Reference: article PMC6106931 (Alzheimer's Research & Therapy, 2018)
“Also recorded” adds a separate entry of the source.

How the values were obtained:
[1] = Plasma and CSF pharmacokinetics, noncompartmental analysis, Study ALZ1008; format: in vivo, human; details: for Kp at 28 day: CSF / free plasma, observed plasma concentration, free fraction 6%, read-out: Ratio C28d (CSF)/free plasma, Mean (SD); for concentration at 28 day: CSF, read-out: C28d, CSF concentration at Day 28, Mean (SD); for AUC: read-out: Plasma AUCτ, Day 28, Mean (SD)
Method: Total apparent clearance for day 28 was calculated as dose/AUCτ.
(§1) The lower limit of quantification (LLOQ) was 1 ng/ml.

[2] = cited from earlier work
[3] = human, in vivo, 4 weeks
Method: Safety and tolerability were assessed during the study by recording adverse events (AEs), clinically significant abnormalities, clinical laboratory tests, ECG, and vital signs and by performing physical, neurological, and MRI examinations. All enrolled participants were included in the safety analysis population.

[4] = Plasma and CSF pharmacokinetics, population PK modeling, Study ALZ1005; format: in vivo, human; details: for Kp at 28 day: CSF / free plasma; for concentration at 28 day: CSF, read-out: C28d, CSF concentration at Day 28, Mean (SD); for AUC: read-out: Plasma AUCτ, Day 28, Mean (SD); for Cmax: read-out: Plasma Cmax, Day 28, Mean (SD)
Method: CSF and plasma collection and processing, as well as apolipoprotein E (APOE) ε4 genotyping, are described in Additional file 2. Population PK modeling from sparse PK samples collected in the ALZ1005 Study was performed to derive individual steady-state maximum plasma concentration [Cmax] and area under the concentration-time profile during the dosing interval at steady state [AUC from 0 to 24 hours postdosing]. This model was also used to derive PK/PD simulations of CSF Aβ1–40 reduction (described in “Pharmacokinetic/pharmacodynamic relationship” section below).
as §1

[5] = Japanese preclinical AD, 10 mg q.d.
[6] = Japanese preclinical AD, 50 mg q.d.
[7] = human, plasma, oral, Caucasian early AD, 10 mg q.d., population PK modeling
[8] = human, plasma, oral, Caucasian early AD, 50 mg q.d., population PK modeling

## C[C@@]1(c2cc(NC(=O)c3ccc(C#N)cn3)ccc2F)C=CSC(N)=N1 [atabecestat]
[1]; Japanese participants, based on mean predose concentrations
  day at or before which steady-state PK was reached: ≤ 8 days
[1]; [5]
  DN AUCτ (dose normalization to 5 mg), Day 28, Mean (SD): 555 (158) ng.h/mL
  DN Cmax (dose normalization to 5 mg), Day 28, Mean (SD): 53.6 (14.1) ng/mL
  Plasma Tmax, Day 28, Median (Range): 2.0 (1.0-3.0) h
[1]; [6]
  DN AUCτ (dose normalization to 5 mg), Day 28, Mean (SD): 473 (255) ng.h/mL
  DN Cmax (dose normalization to 5 mg), Day 28, Mean (SD): 51.6 (26.7) ng/mL
  Plasma Cmax, Day 28, Mean (SD): 516 (267) ng/mL
  Plasma Tmax, Day 28, Median (Range): 1.5 (1.0-2.0) h
[1]; human, oral, 10 mg, Japanese preclinical AD, 10 mg q.d.
  Kp at 28 day: 0.65
[1]; human, oral, 50 mg, Japanese preclinical AD, 50 mg q.d.
  Kp at 28 day: 0.83
[1]; human, oral, Japanese preclinical AD, 10 mg q.d.
  concentration at 28 day: 3.29 ng/mL
[1]; human, oral, Japanese preclinical AD, 50 mg q.d.
  concentration at 28 day: 19.1 ng/mL
[1]; human, plasma, oral, Japanese preclinical AD, 10 mg q.d.
  AUC: 1110 ng·h/mL
[1]; human, plasma, oral, Japanese preclinical AD, 10 mg q.d., read-out: Plasma Cmax, Day 28, Mean (SD)
  Cmax: 107 ng/mL
[1]; human, plasma, oral, Japanese preclinical AD, 50 mg q.d.
  AUC: 4730 ng·h/mL
[2]
  plasma atabecestat free fraction: 6%
[3]
  TEAE incidence (genital herpes): 5.6%
[4]; Caucasian and Japanese early AD
  CNS penetrance of unbound drug: high central nervous system penetrance of unbound drug; also recorded: high CNS penetrance of unbound drug
[4]; Caucasian early AD (preclinical AD and MCI due to AD), 10 and 50 mg q.d., population PK estimate, intersubject CV 30%
  CL/F: 8.32 L/h
[4]; Caucasian early AD, 10 mg q.d.
  DN AUCτ (dose normalization to 5 mg), Day 28, Mean (SD): 616 (185) ng.h/mL
  DN C28d (CSF, dose normalization to 5 mg), Mean (SD): 1.54 (0.52) ng/mL
  DN Cmax (dose normalization to 5 mg), Day 28, Mean (SD): 55 (10) ng/mL
[4]; Caucasian early AD, 50 mg q.d.
  DN AUCτ (dose normalization to 5 mg), Day 28, Mean (SD): 620 (171) ng.h/mL
  DN C28d (CSF, dose normalization to 5 mg), Mean (SD): 1.51 (0.71) ng/mL
[4]; both populations, 10 and 50 mg
  PK linearity: linear PK
[4]; human, oral, Caucasian early AD, 10 mg q.d., simulated plasma concentration, free fraction 6%, read-out: Ratio C28d (CSF)/free plasma, Mean (SD)
  Kp at 28 day: 0.789
[4]; human, oral, Caucasian early AD, 50 mg q.d., simulated plasma concentration, free fraction 6%, read-out: Ratio C28d (CSF)/free plasma, Mean (SD)
  Kp at 28 day: 0.892
[4]; human, oral, Caucasian early AD, 10-mg and 50-mg groups together, day 28
  Kp at 28 day: 0.84
[4]; human, oral, Caucasian early AD, 10 mg q.d.
  concentration at 28 day: 3.08 ng/mL
[4]; human, oral, Caucasian early AD, 50 mg q.d.
  concentration at 28 day: 15.1 ng/mL
[4]; [7]
  Tmax at 28 day: 1.7 h
  AUC: 1230 ng·h/mL
  Cmax: 110 ng/mL
[4]; [8]
  AUC: 6200 ng·h/mL
  Cmax: 550 ng/mL
[4]; human, plasma, oral, Caucasian early AD, 50 mg q.d., population PK modeling, read-out: Plasma Tmax, Day 28
  Tmax: 1.8 h
